# Measurements reported in US20040200144A1, “Plant growth regulator and a method of producing the regulator” (Dainichiseika Color & Chemicals Mfg. Co., Ltd., priority 2003, published 2004).
# Experiments:
# Type in all cases: in vivo
# squash young plants = assay: Dwarfing test of squash young plant; conditions: for Plant Height / Dwarfing Rate: 5 ml per cell on 7th day, measured 20th day; for Dwarfing Rate: vs comparative group
# Procedure: After seeding, the pot was placed in the same greenhouse as described above to sprout. Subsequently, on the 5th day, the cinnamic aqueous acid solutions were added to the nursery soil in the joint pots. One of the joint pots (24 cells) was prepared as a 0.05% cinnamic acid aqueous solution addition group, and 5 ml of the 0.05% cinnamic acid aqueous solution was added to the nursery soil of each cell. Another one of the join pots was prepared as a 0.2% cinnamic acid aqueous solution addition group, and 5 ml of the 0.2% cinnamic acid aqueous solution was added to the nursery soil of each cell. […] Subsequently, the cultivation of carrot young plants in each group was continued under general conditions. On the 27th day, the heights of young plants in each group were measured, the dwarfing rate (%) was calculated, and the dwarfing effect of cinnamic acid aqueous solution on carrot young plants was examined. From the results in Table 5, it became evident that the 0.05% and 0.2% cinnamic acid aqueous solutions are effective in dwarfing carrot young plants. In the same way as in Example 5 except that seeds of cauliflower were sowed, the cinnamic acid solutions were added to the nursery soil in the joint pot on the 4th day, and that heights of young plants in each group were measured on the 20th day, the dwarfing effect of cinnamic acid aqueous solution on cauliflower young plants was examined. From the results in Table 12, it became evident that the cinnamic acid aqueous solutions are effective in dwarfing cauliflower young plants. In the same way as in Example 12 except that seeds of tomato were sowed, and that the cinnamic acid solutions were added to the nursery soil of the joint pot on the 7th day, the dwarfing effect of cinnamic acid aqueous solution on tomato young plants was examined. From the results in Table 17, it became evident that the cinnamic acid aqueous solutions are effective in dwarfing tomato young plants. In the same way as in Example 17 except that seeds of squash were sowed, the dwarfing effect of cinnamic acid aqueous solution on squash young plants was examined. From the results in Table 20, it became evident that the cinnamic acid aqueous solutions are effective in dwarfing squash young plants.
# carrot young plants = assay: Dwarfing test of carrot young plant; conditions: for Plant Height / Dwarfing Rate: 5 ml per cell on 5th day, measured 27th day; for Dwarfing Rate: vs comparative group
# Procedure: Dwarfing rate (%)=[(the plant height of the comparative group)−(the plant height of an addition group)/the plant height of the comparative group]×100
# 50 g of sodium tripolyphosphate was dissolved in 400 ml of distilled water at 80° C., 17.5 g of cinnamic acid was added to the sodium tripolyphosphate solution and dissolved by stirring, the resultant solution was diluted with distilled water until the total volume of solution was 500 ml, and thus 3.5% cinnamic acid aqueous solution (pH 6.5) was prepared. The aqueous solution was further diluted with distilled water 70 times or 17.5 times, and 0.05% cinnamic acid aqueous solution and 0.2% cinnamic acid aqueous solution were prepared, respectively.
# Nursery soil for house use was filled into paper joint pots (each with 24 cells: 34×43×50 mm/cell), water was sufficiently given to the soil, and seeds of carrots were sowed. After seeding, the pot was placed in the same greenhouse as described above to sprout. Subsequently, on the 5th day, the cinnamic aqueous acid solutions were added to the nursery soil in the joint pots. One of the joint pots (24 cells) was prepared as a 0.05% cinnamic acid aqueous solution addition group, and 5 ml of the 0.05% cinnamic acid aqueous solution was added to the nursery soil of each cell. Another one of the join pots was prepared as a 0.2% cinnamic acid aqueous solution addition group, and 5 ml of the 0.2% cinnamic acid aqueous solution was added to the nursery soil of each cell. The other one of the joint pots was prepared as a comparative group in which 5 ml of water is added to each cell, instead of the cinnamic acid aqueous solution. Subsequently, the cultivation of carrot young plants in each group was continued under general conditions. On the 27th day, the heights of young plants in each group were measured, the dwarfing rate (%) was calculated, and the dwarfing effect of cinnamic acid aqueous solution on carrot young plants was examined. […]
# geranium young plants = assay: Dwarfing test of geranium young plant; conditions: for Plant Height / Dwarfing Rate: 100 ml per pot on 3rd day, measured 44th day; for Dwarfing Rate: vs comparative group
# Source text: Dwarfing rate (%)=[(the plant height of the comparative group)−(the plant height of an addition group)/the plant height of the comparative group]×100 In addition, “plant height” in all the tables below was an average of heights from a surface of the soil of a pot used in each test to a head portion of the plant. 160 g of cinnamic acid, 80 g of dispersant (lignin sulfonic sodium) and 293 g of water were mixed, 1,800 g of glass beads (with diameters of 1 to 1.25 mm) were further added, the resultant was added into a vessel of a dispersion apparatus (RM test sand mill with six parallel barrels) and underwent dispersion processing at 120 rpm for three hours, and 30% cinnamic acid dispersion (with the average diameter of cinnamic acid of 0.3 μm) was prepared. The dispersion was diluted with distilled water 300 times or 3,000 times, and thus 0.1% cinnamic acid dispersion and 0.01% cinnamic acid dispersion were prepared, respectively. 30 pots of geranium young plants each with 10 to 12 leaves and a height of 7 cm ware purchased, and placed in a built-up indoor aluminum greenhouse (440×840×1500 mm) at 25° C. On the 3rd day, the cinnamic dispersions as described above were added to the geranium pots. Among 30 pots, 10 pots were prepared as a 0.01% cinnamic acid dispersion addition group, and 100 ml of the 0.01% cinnamic acid dispersion was added to the nursery soil of each pot. Another 10 pots were prepared as a 0.1% cinnamic acid dispersion addition group, and 100 ml of the 0.1% cinnamic acid dispersion was added to the nursery soil of each pot. Remaining 10 pots were prepared as a comparative group, and instead of the cinnamic dispersion, 100 ml of water was added to each pot. Then, the cultivation was continued on the pots in each group under general conditions. The cultivation was continued on geraniums of the pots in each group, and on the 24th day, geraniums in each group started blooming. The cultivation was further continued. On the 44th day after the placement, heights of geraniums of pots in each group were measured, the dwarfing rate (%) was calculated, and the dwarfing effect of cinnamic acid dispersion on geranium young plants was examined. From the results in Table 2, it became evident that the cinnamic acid dispersions are effective in dwarfing geranium young plants.
compound,measurement,setting,value
O=C(O)C=Cc1ccccc1 [cinnamic acid],Plant Height,squash young plants; 0.05% aqueous solution,6.3 cm
same,Dwarfing Rate,squash young plants; 0.05% aqueous solution,27.6%
same,Plant Height,squash young plants; 0.2% aqueous solution,4.3 cm
same,Dwarfing Rate,squash young plants; 0.2% aqueous solution,50.6%
same,dwarfing effect,"squash young plants; squash young plants, 0.05% and 0.2% aqueous solutions",effective
same,Plant Height,carrot young plants; 0.05% aqueous solution,7.9 cm
same,Dwarfing Rate,carrot young plants; 0.05% aqueous solution,7.1%
same,Plant Height,carrot young plants; 0.2% aqueous solution,6.9 cm
same,Dwarfing Rate,carrot young plants; 0.2% aqueous solution,18.8%
same,dwarfing effect,"carrot young plants; carrot young plants, 0.05% and 0.2% aqueous solutions",effective
same,Plant Height,geranium young plants; 0.01% dispersion,13.5 cm
same,Dwarfing Rate,geranium young plants; 0.01% dispersion,12.9%
same,Plant Height,geranium young plants; 0.1% dispersion,6.1 cm
same,Dwarfing Rate,geranium young plants; 0.1% dispersion,60.6%
same,dwarfing effect,"geranium young plants; geranium young plants, 0.01% and 0.1% dispersions",effective
